Laboratory results taken from patent US20240327320A1, “NOVEL ROUTES OF CHEMICAL SYNTHESIS OF 20S(OH)D3, 20S,25(OH)2D3, 20S,23S(OH)2D3, AND 20S,23R(OH)2D3 AND THEIR MODIFICATION OF THE IMMUNE ACTIVITY OF PBMCS” (United State Government as represen ted by the Department …, priority 2023, published 2024).

Experiments:
[1] = target: T1, Mouse CYP27B1 (Mus musculus, UniProt O35084); test: CYP27B1 activity on secosteroids in phospholipid vesicles (1α-hydroxylation); type: in vitro ADME; details: for 1α-hydroxylase activity: 0.025 mol secosteroid/mol phospholipid, CYP27B1 0.2 μM, mean±SD, n=3; for rate / efficiency of 1α-hydroxylation by CYP27B1, in words: phospholipid vesicles, mouse CYP27B1
T1 construct: made in house; host or cells: E. coli
T1 sequence (O35084 1-507): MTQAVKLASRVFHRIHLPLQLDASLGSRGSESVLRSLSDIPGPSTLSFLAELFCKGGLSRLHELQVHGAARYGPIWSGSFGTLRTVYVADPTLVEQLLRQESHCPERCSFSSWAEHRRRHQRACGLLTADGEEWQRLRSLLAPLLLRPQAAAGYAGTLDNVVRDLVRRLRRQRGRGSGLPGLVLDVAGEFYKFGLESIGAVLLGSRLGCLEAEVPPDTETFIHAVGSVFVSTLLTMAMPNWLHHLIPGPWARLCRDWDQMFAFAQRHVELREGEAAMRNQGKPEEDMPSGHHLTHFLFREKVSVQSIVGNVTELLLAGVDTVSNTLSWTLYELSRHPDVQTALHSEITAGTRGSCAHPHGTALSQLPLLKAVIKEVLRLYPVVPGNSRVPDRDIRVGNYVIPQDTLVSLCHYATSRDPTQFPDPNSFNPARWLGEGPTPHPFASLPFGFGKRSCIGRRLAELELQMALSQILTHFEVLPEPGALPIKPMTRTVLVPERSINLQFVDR
Protocol: Mouse CYP27B1 was expressed in E. coli and purified (Tang E K, et. al., (2010) Drug Metabolism and Disposition, 38(9) 1553-9). CYP27B1 activity was measured on substrate incorporated into the membrane of phospholipid vesicles as described previously. Briefly, phospholipid vesicles were prepared by sonication of dioleoyl phosphatidylcholine, cardiolipin and secosteroid. Vesicles (510 μM phospholipid) were then incubated at 37° C. with CYP27B1 (0.2 μM) in buffer comprising 20 mM Hepes, pH 7.4, 100 mM NaCl, 0.1 mM EDTA, 0.1 mM and dithiothreitol, adrenodoxin (15 μM), adrenodoxin reductase (0.4 μM), glucose-6-phosphate (2 mM), glucose-6-phosphate dehydrogenase (2 U/mL) and NAPDH (50 μM) in a volume of 0.5 ml. After reaction (5 or 20 min), the incubation mixture was extracted 3-times with 2.5 ml dichloromethane, extracts combined, dried under N2 gas and dissolved in 64% methanol. Samples were analysed by reverse phase HPLC on a Grace Alltima column (25×0.46 cm) using a gradient of 64 to 100% methanol for 15 min followed by 100% methanol for 30 min, at a flow rate of 0.5 ml/min. Metabolites were detected with a UV detector at 265 nm.
All four chemically synthesized secosteroids were converted to their expected 1α-hydroxy derivatives by CYP27B1, and identified on the basis of previous studies on the enzymatically and/or chemically derived substrates (Li W, et. al., (2010) Steroids 75(12) 926-35, Tang E K, et. al., (2013) Drug metabolism and disposition: the biological fate of chemicals 41(5) 1112-24, Lin Z, et. al., (2016) J Med Chem 59(10) 5102-8, Tang E K, et. al., (2010) Drug metabolism and disposition: the biological fate of chemicals 38(9) 1553-9). Secosteroids were incorporated into phospholipid vesicles at a ratio of 0.025 mol secosteroid/mol phospholipid and incubated with mouse CYP27B1 (0.2 μM) for 20 min for all substrates except 20S,25(OH)2D3 which was incubated for 5 min. Extracted samples were analyzed by reverse-phase HPLC. Data are mean±SD, n=3. […] In summary, the efficiency of metabolism of D3 derivatives by CYP27B1 is as follows: 20S,25(OH)2D3>>20S,23S(OH)2D3>20S(OH)D3=20S,23R(OH)2D3.

[2] = target: T2, LXRβ (Homo sapiens, UniProt P55055); test: LanthaScreen TR-FRET LXRβ coactivator assay; type: biochemical; details: TR-FRET ratio 520/495 nm, FIG. 8E-F
T2 construct: purchased Thermo Fisger Scientific, Inc
T2 sequence (P55055 222-460 limits assumed): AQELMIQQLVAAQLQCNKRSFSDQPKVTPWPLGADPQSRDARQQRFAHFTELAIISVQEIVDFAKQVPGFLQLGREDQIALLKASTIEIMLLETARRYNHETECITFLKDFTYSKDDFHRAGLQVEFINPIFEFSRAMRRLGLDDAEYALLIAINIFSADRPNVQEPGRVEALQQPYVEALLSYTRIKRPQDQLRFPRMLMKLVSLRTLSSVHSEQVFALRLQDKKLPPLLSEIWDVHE
Protocol: The bindings were performed using the LanthaScreen TR-FRET LXRa/0 Coactivator kit (Thermo Fisger Scientific, Inc., Waltham, MA) as described previously (Slominski A T, et. al., (2021) Sci Rep 11(1) 8002). Briefly, TR-FRET ratios were calculated by dividing the emission at 520 nm by that at 495 nm using Synergy neo2 (BioTek, Winooski, VT).

[3] = system: CYP24A1 (downstream target of the activated VDR); test: CYP24A1 expression, qPCR of downstream enzymes; type: cell-based; details: FIG. 8C
Protocol: RNA isolation and reverse transcription were performed as described previously (Slominski A T, et. al., (2021) Sci Rep 11(1) 8002). Quantitative RT-PCR was carried out using Sybr green Master Mix (Thermo Scientific, Waltham, MA), in triplicates as previously described (Slominski A T, et. al., (2021) Sci Rep 11(1) 8002; Janjetovic Z, et. al., (2014) J Pineal Res 57(1) 90-102). Human epidermal keratinocytes (HEKn) isolated from foreskin of white neonates were cultured until the third passage before treatment as described in the literature (Chaiprasongsuk A, et. al., (2019) Redox Biol 24 101206; Janjetovic Z, et. al., (2009) PloS one 4(6) e5988). Cells were treated with vitamin D3 derivatives for 8 h or 24 h and harvested for RNA isolation. Approximately 300 ng of RNA was used for cDNA synthesis and an equal amount of cDNA was used for PCR reactions. Cyclophilin B or GAPDH was used as an internal control. Primers sequences are listed in (Chaiprasongsuk A, et. al., (2020) Free Radic Biol Med 155 87-9845, Slominski A T, et. al., (2017) Sci Rep 7(1) 11434). Reactions were done in triplicate.
To better define the properties of the newly synthesized secosteroids, their activities on the VDR, AhR and LXR were tested by performing functional assays which were further validated by qPCR of downstream enzymes (FIGS. 8A-F) and molecular modeling (FIG. 9-13). Binding affinities of top-scored docking complexes of vitamin D3 hydroxy derivatives with VDR, AhR, LXRs (LXRα, LXRβ) and RORs (RORα, RORγ) from molecular docking are presented in FIG. 9, known ligands for each receptor were used as controls.

Row | Structure (SMILES) | 1α-hydroxylase activity ([1]; incubated 20 min) | rate / efficiency of 1α-hydroxylation by CYP27B1, in words [1] | activity on LXRβ [2] | CYP24A1 expression [3] | 1α-hydroxylase activity ([1]; incubated 5 min)
1 | C=C1CC[C@H](O)C/C1=C/C=C1\CCC[C@@]2(C)[C@H]1CC[C@@H]2[C@@](C)(O)CCCC(C)C [20S(OH)D3, (20S)-20-Hydroxyvitamin D3] | 0.135 ± 0.005 mol product/min/mol CYP27B1 | relatively poorer substrate for CYP27B1 | – | – | –
2 | C=C1CC[C@H](O)C/C1=C/C=C1\CCC[C@@]2(C)[C@H]1CC[C@@H]2[C@@](C)(O)C[C@H](O)CC(C)C [20S,23R(OH)2D3, (20S,23R)-20,23-Dihydroxyvitamin D3] | 0.117 ± 0.027 mol product/min/mol CYP27B1 | – | less efficient in activation of LXRβ than 20S,23S(OH)2D3 | significantly less expression than 1α,25(OH)2D3 | –
3 | C=C1CC[C@H](O)C/C1=C/C=C1\CCC[C@@]2(C)[C@H]1CC[C@@H]2[C@@](C)(O)C[C@@H](O)CC(C)C [20S,23S(OH)2D3, (20S,23S)-20,23-Dihydroxyvitamin D3] | 0.258 ± 0.020 mol product/min/mol CYP27B1 | metabolized approximately twice as fast as the non-natural 20S,23R-isomer | better affinity with LXRβ | significantly less expression than 1α,25(OH)2D3 | –
4 | C=C1CC[C@H](O)C/C1=C/C=C1\CCC[C@@]2(C)[C@H]1CC[C@@H]2[C@@](C)(O)CCCC(C)(C)O [20S,25(OH)2D3, (20S)-20,25-Dihydroxyvitamin D3] | – | high rate of 1α-hydroxylation | – | much greater stimulation of CYP24A1 expression than 20S(OH)D3 | 7.98 ± 0.24 mol product/min/mol CYP27B1
